What was measured:
Format in all cases: binding
BRDT(2) = biological target: T1, BRDT(2) (Homo sapiens, UniProt Q58F21); experiment: Protein stability (thermal) shift assay, BRDT(2); conditions: compound 10 μM, protein 2 μM; average of triplicate; read-out: ΔTm Shift, BRDT(2)
T1 construct: made in house
Procedure: (§1) Thermal melting experiments were carried out using an Mx3005p real time PCR machine (Stratagene). Proteins were buffered in 10 mM HEPES, pH 7.5, 500 mM NaCl and assayed in a 96-well plate at a final concentration of 2 μM in 20 μL volume. Compounds were added at a final concentration of 10 or 100 μM. SYPRO Orange (Molecular Probes) was added as a fluorescence probe at a dilution of 1 in 1000. Excitation and emission filters for the SYPRO-Orange dye were set to 465 and 590 nm, respectively. The temperature was raised with a step of 3 °C per minute from 25 to 96 °C, and fluorescence readings were taken at each interval. The temperature dependence of the fluorescence during the protein denaturation process was approximated by the equation [drawing 1] where ΔuG is the difference in unfolding free energy between the folded and unfolded state, R is the gas constant, and yF and yU are the fluorescence intensity of the probe in the presence of completely folded and unfolded protein, respectively.[65] The baselines of the denatured and native states were approximated by a linear fit. The observed temperature shifts, ΔTm^obs, were recorded as the difference between the transition midpoints of sample and reference wells containing protein without ligand in the same plate and determined by nonlinear least-squares fit. Temperature shifts (ΔTm^obs) for three independent measurements per proteins/compound are summarized in Supporting Information Table S1.

BRDT(1) = biological target: T2, BRDT(1) (Homo sapiens, UniProt Q58F21); experiment: Protein stability (thermal) shift assay, BRDT(1); conditions: compound 10 μM, protein 2 μM; average of triplicate
T2 construct: made in house
Procedure: as §1

BRD4(1) = biological target: T3, BRD4(1) (Homo sapiens, UniProt O60885); experiment: Protein stability (thermal) shift assay, BRD4(1); conditions: compound 10 μM, protein 2 μM; average of triplicate; read-out: ΔTm Shift, BRD4(1)
T3 construct: made in house
Procedure: as §1

BAZ2B = biological target: T4, BAZ2B (Homo sapiens, UniProt Q9UIF8); experiment: Protein stability (thermal) shift assay, BAZ2B; conditions: compound 10 μM, protein 2 μM; average of triplicate; read-out: ΔTm Shift, BAZ2BA
T4 construct: representative BRDs from other structural subfamilies (family I, PCAF); family III, CREBBP; family IV, BRD9; family V, BAZ2B; made in house
T4 sequence (Q9UIF8 2060-2164 limits assumed): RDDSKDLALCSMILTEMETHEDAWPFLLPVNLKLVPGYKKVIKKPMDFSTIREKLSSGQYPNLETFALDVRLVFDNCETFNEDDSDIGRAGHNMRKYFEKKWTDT
Procedure: as §1

CREBBP = biological target: T5, CREBBP (Homo sapiens, UniProt Q92793); experiment: Protein stability (thermal) shift assay, CREBBP; conditions: compound 10 μM, protein 2 μM; average of triplicate; read-out: ΔTm Shift, CREBBP
T5 construct: small thermal shits (1.0–1.3 °C) for the bromodomain of CREBBP; made in house
T5 sequence (Q92793 1085-1192 limits assumed): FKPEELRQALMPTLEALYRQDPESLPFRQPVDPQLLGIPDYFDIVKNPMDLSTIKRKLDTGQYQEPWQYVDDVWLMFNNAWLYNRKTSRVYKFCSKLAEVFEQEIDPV
Procedure: as §1

BRD2(1) = biological target: T6, BRD2(1) (Homo sapiens, UniProt P25440); experiment: Protein stability (thermal) shift assay, BRD2(1); conditions: compound 10 μM, protein 2 μM; average of triplicate
T6 construct: Fragments were tested in a thermal shift assay against bromodomains of the BET subfamily; made in house
T6 sequence (P25440 74-180 limits assumed): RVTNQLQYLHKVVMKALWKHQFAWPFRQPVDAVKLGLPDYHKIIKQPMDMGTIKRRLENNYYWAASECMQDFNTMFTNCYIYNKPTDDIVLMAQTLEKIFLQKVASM
Procedure: as §1

BRD3(1) = biological target: T7, BRD3(1) (Homo sapiens, UniProt Q15059); experiment: Protein stability (thermal) shift assay, BRD3(1); conditions: compound 10 μM, protein 2 μM; average of triplicate
T7 construct: Fragments were tested in a thermal shift assay against bromodomains of the BET subfamily; made in house
T7 sequence (Q15059 34-140 limits assumed): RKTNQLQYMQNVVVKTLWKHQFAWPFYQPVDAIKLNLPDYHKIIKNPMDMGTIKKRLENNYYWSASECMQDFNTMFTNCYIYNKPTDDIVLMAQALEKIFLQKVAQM
Procedure: as §1

BRD2(2) = biological target: T8, BRD2(2) (Homo sapiens, UniProt P25440); experiment: Protein stability (thermal) shift assay, BRD2(2); conditions: compound 10 μM, protein 2 μM; average of triplicate
T8 construct: made in house
T8 sequence (P25440 344-453 limits assumed): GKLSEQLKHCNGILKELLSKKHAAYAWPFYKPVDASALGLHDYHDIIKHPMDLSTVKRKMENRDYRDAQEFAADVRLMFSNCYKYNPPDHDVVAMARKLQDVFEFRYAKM
Procedure: as §1

PB1(5) = biological target: T9, PB1(5) (Homo sapiens, UniProt Q86U86); experiment: Protein stability (thermal) shift assay, PB1(5); conditions: compound 10 μM, protein 2 μM; average of triplicate
T9 construct: made in house
T9 sequence (Q86U86 653-763 limits assumed): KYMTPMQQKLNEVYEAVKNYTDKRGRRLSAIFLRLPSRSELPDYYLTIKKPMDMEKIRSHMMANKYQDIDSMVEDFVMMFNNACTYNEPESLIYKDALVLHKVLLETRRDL
Procedure: as §1

PCAF = biological target: T10, PCAF (Homo sapiens, UniProt Q92831); experiment: Protein stability (thermal) shift assay, PCAF; conditions: compound 10 μM, protein 2 μM; average of triplicate
T10 construct: representative BRDs from other structural subfamilies (family I, PCAF); made in house
T10 sequence (Q92831 723-827 limits assumed): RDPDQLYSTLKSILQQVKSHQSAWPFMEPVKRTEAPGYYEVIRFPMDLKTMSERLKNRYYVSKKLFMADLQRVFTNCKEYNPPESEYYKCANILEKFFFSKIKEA
Procedure: as §1

BRD3(2) = biological target: T11, BRD3(2) (Homo sapiens, UniProt Q15059); experiment: Protein stability (thermal) shift assay, BRD3(2); conditions: compound 10 μM, protein 2 μM; average of triplicate
T11 construct: made in house
T11 sequence (Q15059 306-415 limits assumed): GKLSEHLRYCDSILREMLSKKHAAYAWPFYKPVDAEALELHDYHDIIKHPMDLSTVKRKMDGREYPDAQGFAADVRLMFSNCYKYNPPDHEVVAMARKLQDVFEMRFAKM
Procedure: as §1

BRD4(2) = biological target: T12, BRD4(2) (Homo sapiens, UniProt O60885); experiment: Protein stability (thermal) shift assay, BRD4(2); conditions: compound 10 μM, protein 2 μM; average of triplicate
T12 construct: made in house
Procedure: as §1

BRD9 = biological target: T13, BRD9 (Homo sapiens, UniProt Q9H8M2); experiment: Protein stability (thermal) shift assay, BRD9; conditions: compound 10 μM, protein 2 μM; average of triplicate; read-out: ΔTm Shift, BRD9
T13 construct: made in house
T13 sequence (Q9H8M2 136-240 limits assumed): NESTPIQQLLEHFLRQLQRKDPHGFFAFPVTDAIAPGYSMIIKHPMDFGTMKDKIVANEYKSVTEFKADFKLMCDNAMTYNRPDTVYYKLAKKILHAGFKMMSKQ
Procedure: as §1

| ΔTm at 10 µM (BRDT(2)) [°C] | ΔTm at 10 µM (BRDT(1)) [°C] | ΔTm at 10 µM (BRD4(1)) [°C] | ΔTm at 10 µM (BAZ2B) [°C] | ΔTm at 10 µM (CREBBP) [°C] | ΔTm at 10 µM (BRD2(1)) [°C] | ΔTm at 10 µM (BRD3(1)) [°C] | ΔTm at 10 µM (BRD2(2)) [°C] | ΔTm at 10 µM (PB1(5)) [°C] | ΔTm at 10 µM (PCAF) [°C] | ΔTm at 10 µM (BRD3(2)) [°C] | ΔTm at 10 µM (BRD4(2)) [°C] | ΔTm at 10 µM (BRD9) [°C] | SMILES |
| --- | --- | --- | --- | --- | --- | --- | --- | --- | --- | --- | --- | --- | --- |
| -0.234 | -0.8 | 1.6 | -0.1 | 1.6 | 0.361 | 0.7 | -0.374 | 1.4 | -0.8 | -0.159 | 0.5 |  | Clc1nc(Cl)c2nc[nH]c2n1 [Compound 1, 2,6-dichloro-9H-purine] |
| -0.167 | -0.133 | 0.223 | 0.00333 | 0.663 | -0.253 | -0.06 | 0.337 | -0.08 | 0.0867 | 0.4 | 0.0133 | 0 | COc1ccc(-c2nc(N)nc3[nH]cnc23)cc1 [Compound 3b, 2-Amino-6-(4-methoxyphenyl)-9H-purine] |
| 0.3 | 0.253 | 0.533 | 0.273 | 0.6 | -0.0833 | -0.127 | 0.5 | 0.0567 | 0.2 | 0.7 | 0.5 | 0.847 | Nc1nc(-c2ccc(Oc3ccccc3)cc2)c2nc[nH]c2n1 [Compound 3d, 2-Amino-6-(4-phenoxyphenyl)-9H-purine] |
| 0.271 | -0.322 | -0.18 | -1 | 0.363 | -0.5 | -0.125 | 0.459 | 0.339 | 0.1 | 0.215 | -7.9 | -0.9 | Nc1nc(-c2ccc(COc3cccc(C(F)(F)F)c3)cc2)c2nc[nH]c2n1 [Compound 3g, 2-Amino-6-(4-(3′-(trifluoromethyl)phenoxymethyl)phenyl)-9H-purine] |
| 0.7 | 0.528 | 0.6 | -0.127 | 1 | 0.354 | 0.5 | 1.2 | 0.5 | -0.2 | 2 | -2.8 | -0.532 | COCCc1ccc(OCc2ccc(-c3nc(N)nc4[nH]cnc34)cc2)cc1 [Compound 3h, 2-Amino-6-(4-((4′-(2-methoxyethyl)phenoxy)methyl)phenyl)-9H-purine] |
| 0.224 | -0.0553 | -0.15 | -0.367 | 0.9 | -0.5 | -0.252 | -0.5 | 0.536 | -0.2 | -0.092 | -2.6 | -1.7 | Nc1nc(-c2ccc(OCc3ccccc3)c(Cl)c2)c2nc[nH]c2n1 [Compound 4a, 2-Amino-6-(4-benzyloxy-3-chlorophenyl)-9H-purine] |
| 0.7 | 0.658 | 0.54 | 2.3 | -0.04 | -0.113 | 0.445 | 0.159 | 0.7 | 1.6 | -0.379 | -2.9 | -2 | COc1cc(COc2ccc(-c3nc(N)nc4[nH]cnc34)cc2Cl)cc(OC)c1 [Compound 4b, 2-Amino-6-(3-chloro-4-(3′,5′-dimethoxybenzyloxy)phenyl)-9H-purine] |
| -0.166 | -0.125 | 0.4 | -0.9 | -1.5 | -0.3 | 0.0747 | -0.0273 | -1.6 | -1.2 | 0.9 | -1.3 | 0.8 | Nc1nc(-c2ccc3c(c2)OCCO3)c2nc[nH]c2n1 [Compound 4c, 2-Amino-6-(2,3-dihydrobenzo[b][1,4]dioxin-6-yl)-9H-purine] |
| 1.2 | 0.7 | 1.5 | 0.653 | 1.5 | 0.643 | 0.7 | 1.4 | 0.553 | 0.7 | 1.2 | 1 |  | Nc1nc(-c2cccc(OCc3ccc(Cl)cc3)c2)c2nc[nH]c2n1 [Compound 4d, 2-Amino-6-(3-(4′-chlorobenzyloxy)phenyl)-9H-purine] |
| 0.364 | -0.122 | 0.7 | 0.0167 | 0.34 | 0.167 | 0.341 | 0.4 | 0.4 | -0.4 | 1.3 | -1.3 | -0.1 | COc1cccc(OC)c1-c1nc(N)nc2[nH]cnc12 [Compound 6a, 2-Amino-6-(2,6-dimethoxyphenyl)-9H-purine] |
| 0.447 | 0.165 | 0.6 | -0.3 | -0.1 | -0.459 | 0.651 | -0.3 | 0.216 | -0.261 | 0.6 | -0.845 | -0.162 | COc1cccc(OC(C)C)c1-c1nc(N)nc2[nH]cnc12 [Compound 6b, 2-Amino-6-(2-isopropoxy-6-methoxyphenyl)-9H-purine] |

| SMILES | ΔTm at 10 µM (BRDT(2)) [°C] | ΔTm at 10 µM (BRDT(1)) [°C] | ΔTm at 10 µM (BRD4(1)) [°C] | ΔTm at 10 µM (BAZ2B) [°C] | ΔTm at 10 µM (CREBBP) [°C] | ΔTm at 10 µM (BRD2(1)) [°C] | ΔTm at 10 µM (BRD3(1)) [°C] | ΔTm at 10 µM (BRD2(2)) [°C] | ΔTm at 10 µM (PB1(5)) [°C] | ΔTm at 10 µM (PCAF) [°C] | ΔTm at 10 µM (BRD3(2)) [°C] | ΔTm at 10 µM (BRD4(2)) [°C] | ΔTm at 10 µM (BRD9) [°C] |
| --- | --- | --- | --- | --- | --- | --- | --- | --- | --- | --- | --- | --- | --- |
| CCCCOc1cc(Br)cc(-c2nc(N)nc3[nH]cnc23)c1 [Compound 5a, 2-Amino-6-(3-bromo-5-butoxyphenyl)-9H-purine] | 1.8 | 1 | 1.6 | 1.1 | 1.7 | 0.7 | 0.9 | 1.7 | 1.1 | 1.3 | 1.5 | 1.3 | 1.1 |
| COc1cccc(OCC(C)C)c1-c1nc(N)nc2[nH]cnc12 [Compound 6c, 2-Amino-6-(2-isobutoxy-6-methoxyphenyl)-9H-purine] | 0.8 | -0.0153 | 1 | -0.147 | -0.4 | 0.187 | 1.2 | 0.6 | -0.324 | -0.121 | 1.1 | 0.4 | -0.0523 |

Source: article PMC4403932 (Journal of Medicinal Chemistry, 2015)
